Here are results for nine compounds from patent US10881653B2, “Tricyclic compounds and their use in the treatment of cancer” (The United States of America, as represented by the …, priority 2015, dated 2021).

Experiment [1] deals with T1, gluthathione reductase (GR) (Homo sapiens, UniProt P00390).
T1 sequence (P00390 44-522): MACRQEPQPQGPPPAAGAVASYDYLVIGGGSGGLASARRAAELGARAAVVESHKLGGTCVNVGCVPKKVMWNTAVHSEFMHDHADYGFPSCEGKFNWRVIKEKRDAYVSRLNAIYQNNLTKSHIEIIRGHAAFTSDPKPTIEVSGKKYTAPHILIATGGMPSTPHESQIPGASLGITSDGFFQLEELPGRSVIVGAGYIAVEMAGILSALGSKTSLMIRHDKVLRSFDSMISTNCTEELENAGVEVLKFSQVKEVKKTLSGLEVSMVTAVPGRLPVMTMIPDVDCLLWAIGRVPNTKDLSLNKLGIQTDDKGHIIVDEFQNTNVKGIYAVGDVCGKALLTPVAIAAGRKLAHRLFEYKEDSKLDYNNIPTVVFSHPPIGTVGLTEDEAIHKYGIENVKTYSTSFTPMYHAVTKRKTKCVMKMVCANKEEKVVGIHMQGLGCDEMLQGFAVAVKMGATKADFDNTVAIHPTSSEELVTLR
Description: Inhibition of recombinant GR (GSSG assay). Type of experiment: biochemical. On the procedure: (§1) Small molecule inhibition of recombinant thioredoxin reductase 1 (TrxR1) and gluthathione reductase (GR) was examined in 96-well plate format. 15 nM TrxR1 was incubated in the presence of 250 μM NADPH, 0.1 mg/ml BSA, and various concentrations of the compound of Example 1 (1% DMSO final) in 50 mM Tris (pH 7.5) and 2 mM EDTA buffer for 15 minutes. Following the incubation period, 2.5 mM DTNB was added to each well and the change in O.D. at 412 nm was followed. Percent activity was determined using DMSO vehicle and no TrxR1 (blank) controls. 2 nM GR was incubated in the presence of 250 μM NADPH, 0.1 mg/ml BSA, and various concentrations of compounds (1% DMSO final) in 50 mM Tris (pH 7.5) and 2 mM EDTA buffer for 15 minutes. Following the incubation period, 1 mM GSSG was added to each well and the change in O.D. at 340 nm was followed. Percent activity was determined using DMSO vehicle and no GR (blank) controls.

Experiment [2] deals with T2, recombinant thioredoxin reductase 1 (TrxR1) (Homo sapiens, UniProt Q16881).
T2 sequence (Q16881 1-649): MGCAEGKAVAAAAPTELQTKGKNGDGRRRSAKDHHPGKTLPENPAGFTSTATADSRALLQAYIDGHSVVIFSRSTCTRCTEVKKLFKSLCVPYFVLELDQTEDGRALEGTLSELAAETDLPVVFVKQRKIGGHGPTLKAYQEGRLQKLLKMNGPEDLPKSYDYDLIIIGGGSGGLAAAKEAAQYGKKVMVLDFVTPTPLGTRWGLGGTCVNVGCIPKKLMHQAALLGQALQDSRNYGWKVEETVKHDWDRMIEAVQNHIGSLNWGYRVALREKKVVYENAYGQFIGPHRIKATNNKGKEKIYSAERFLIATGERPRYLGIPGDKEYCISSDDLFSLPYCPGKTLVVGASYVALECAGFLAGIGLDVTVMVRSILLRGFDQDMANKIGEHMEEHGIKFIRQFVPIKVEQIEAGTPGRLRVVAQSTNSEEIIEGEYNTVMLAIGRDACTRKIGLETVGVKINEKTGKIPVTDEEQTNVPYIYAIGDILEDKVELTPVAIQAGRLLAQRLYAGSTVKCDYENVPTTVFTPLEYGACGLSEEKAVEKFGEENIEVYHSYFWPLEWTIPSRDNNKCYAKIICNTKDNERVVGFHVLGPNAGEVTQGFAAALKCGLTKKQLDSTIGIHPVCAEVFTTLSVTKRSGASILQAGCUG
The experiment is described as follows: Inhibition of recombinant TrxR1 (DTNB assay). Type of experiment: biochemical. On the procedure: as §1

The mark [3] stands for this setting: Biological Example 1, 2 nM GR, 250 μM NADPH, 15 minutes incubation.
The mark [4] stands for this setting: Biological Example 4, assays of Biological Example 1.
Setting [5] is: Biological Example 1, 15 nM TrxR1, 250 μM NADPH, 15 minutes incubation, read-out: TrxR inhibition.
Setting [6] is: Biological Example 4, assays of Biological Example 1, read-out: TrxR Inhibition.

Structures can show the parent of a compound that is named as a salt. Where two headings read alike, the source gives them in different places. Where only a bound is given, the exact number is not on record here.

On to `O=C1C=C[C@H]2[C@@H]3C(=O)N(c4ccccc4)C(=O)[C@@H]3[C@@H]1N2CCc1ccccc1` (relative stereo) [Example 7, exo-4-Phenyl-11-(2-phenylethyl)-4,11-diazatricyclo[5.3.1.0^2,6]undec-9-ene-3,5,8-trione Trifluoroacetate], for which the IC50 in experiment [1] (setting [3]) was > 100000 nM; in experiment [1] (setting [4]), > 100000 nM; in experiment [2] (setting [5]), 1750 nM; in experiment [2] (setting [6]), 1970 nM.
As to `O=C1C=C[C@H]2[C@@H]3C(=O)N(C4CCCCC4)C(=O)[C@@H]3[C@@H]1N2Cc1ccccc1` (relative stereo) [Example 9, exo-11-Benzyl-4-cyclohexyl-4,11-diazatricyclo[5.3.1.0^2,6]undec-9-ene-3,5,8-trione Trifluoroacetate], the IC50 was > 100000 nM in experiment [1] (setting [3]), > 100000 nM in experiment [1] (setting [4]), 1850 nM in experiment [2] (setting [5]) and 1850 nM in experiment [2] (setting [6]).
For the compound `O=C1C=C[C@H]2[C@@H]3C(=O)N(Cc4ccccc4)C(=O)[C@@H]3[C@@H]1N2Cc1ccccc1` (relative stereo) [Example 11, exo-4,11-Dibenzyl-4,11-diazatricyclo[5.3.1.0^2,6]undec-9-ene-3,5,8-trione Trifluoroacetate], the IC50 in experiment [1] (setting [4]) was > 100000 nM; in experiment [2] (setting [6]), 900 nM.
The like results for `CC1=CC(=O)[C@@H]2[C@H]3C(=O)N(C4CCCCC4)C(=O)[C@H]3[C@H]1N2Cc1ccccc1` (relative stereo) [Example 14, exo-11-Benzyl-4-cyclohexyl-10-methyl-4,11-diazatricyclo[5.3.1.0^2,6]undec-9-ene-3,5,8-trione Trifluoroacetate] were, in that order, > 100000 nM and 33300 nM.
The like results for `CC(C)(C)N1C(=O)[C@@H]2[C@H](C1=O)[C@H]1C(=O)C=C[C@@H]2N1Cc1ccccc1` (relative stereo) [Example 17, exo-11-Benzyl-4-(tert-butyl)-4,11-diazatricyclo[5.3.1.0^2,6]undec-9-ene-3,5,8-trione Trifluoroacetate] were, in that order, > 100000 nM and 1640 nM.
For `O=C1C=C[C@H]2[C@@H]3C(=O)N(c4ccccc4)C(=O)[C@@H]3[C@@H]1N2Cc1ccc(F)cc1Cl` (relative stereo) [Example 18, exo-11-(2-Chloro-4-fluorobenzyl)-4-phenyl-4,11-diazatricyclo[5.3.1.0^2,6]-undec-9-ene-3,5,8-trione Trifluoroacetate], the IC50 turned out to be 70400 nM in experiment [1] (setting [3]), 22000 nM in experiment [1] (setting [4]), 2450 nM in experiment [2] (setting [5]) and 940 nM in experiment [2] (setting [6]).
Regarding `Cc1ccccc1CN1[C@@H]2C(=O)C=C[C@H]1[C@@H]1C(=O)N(c3ccccc3)C(=O)[C@@H]12` (relative stereo) [Example 19, exo-11-(2-Methylbenzyl)-4-phenyl-4,11-diazatricyclo[5.3.1.0^2,6]undec-9-ene-3,5,8-trione Trifluoroacetate], the values for the IC50 in experiment [1] (setting [4]) and in experiment [2] (setting [6]) were > 100000 nM and 1500 nM, respectively.
In the case of `Cc1cccc(CN2[C@@H]3C(=O)C=C[C@H]2[C@@H]2C(=O)N(c4ccccc4)C(=O)[C@@H]23)c1` (relative stereo) [Example 21, exo-11-(3-Methylbenzyl)-4-phenyl-4,11-diazatricyclo[5.3.1.0^2,6]undec-9-ene-3,5,8-trione Trifluoroacetate], the IC50 in experiment [1] (setting [3]) was > 100000 nM; in experiment [1] (setting [4]) it was > 100000 nM; in experiment [2] (setting [5]), 7390 nM; in experiment [2] (setting [6]), 1150 nM.
As to `COc1cccc(CN2[C@@H]3C(=O)C=C[C@H]2[C@@H]2C(=O)N(c4ccccc4)C(=O)[C@@H]23)c1` (relative stereo) [Example 22, exo-11-(3-Methoxybenzyl)-4-phenyl-4,11-diazatricyclo[5.3.1.0^2,6]undec-9-ene-3,5,8-trione Trifluoroacetate], the IC50 is > 100000 nM in experiment [1] (setting [3]), 75200 nM in experiment [1] (setting [4]), 1970 nM in experiment [2] (setting [5]) and 1240 nM in experiment [2] (setting [6]).
